Values of other authors in patent US20210195875A1 (SMC GLOBAL ASSET, INC., priority 2016, published 2021).
“Also recorded” adds a separate entry of the source.

What was measured:
mice = conditions: icv STZ alone

Structure (SMILES) | aggregation of a pathologic protein such as amyloid and tau (mice) | inflammation and neural function disorder (mice; compared with a gene modified model) | toxicity in rat primary cultured cells (dopaminergic neuron)
CN(N=O)C(=O)N[C@H]1C(O)O[C@H](CO)[C@@H](O)[C@@H]1O (mixture of isomers) [icv STZ, streptozotocin] | no aggregation of a pathologic protein | intense inflammation and neural function disorder | 
Cn1c(N)nc2ncc(-c3ccccc3)cc21 [PhIP, 2-amino-1-methyl-6-phenyl-1H-imidazo[4,5-b] pyridine] |  |  | toxicity in a dopaminergic neuron selective manner; also recorded: toxicity in a dopamine nerve selective manner
